This experiment addresses T1, PAPD5 (Homo sapiens, UniProt Q8NDF8).
T1 construct: made in house
Description: High-throughput luminescence (KinaseGlo) RNA polyadenylation assay, ATP utilization by recombinant PAPD5. It counts as biochemical. Particulars: Table 4 (entries of Table 5), ratio of luminescence with inhibitor to DMSO; for Fold-change determined at compound concentration 33 μM: 33 μM compound; for Fold-change determined at compound concentration 100 μM: 100 μM compound, higher = higher inhibition. The essentials:
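Values are ratios of inhibitor to DMSO luminescence, so larger numbers mean less ATP consumed. Screening was run in duplicate with a 2 h room-temperature reaction of recombinant PAPD5, ATP and oligo RNA substrate plus compound. Residual ATP was detected after a 10 min KinaseGlo step.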
On the technique in general: In Kinase-Glo more light means more ATP remaining.

The structures appear in SMILES notation.

T1 sequence (Q8NDF8 68-698 isoform Q8NDF8-5): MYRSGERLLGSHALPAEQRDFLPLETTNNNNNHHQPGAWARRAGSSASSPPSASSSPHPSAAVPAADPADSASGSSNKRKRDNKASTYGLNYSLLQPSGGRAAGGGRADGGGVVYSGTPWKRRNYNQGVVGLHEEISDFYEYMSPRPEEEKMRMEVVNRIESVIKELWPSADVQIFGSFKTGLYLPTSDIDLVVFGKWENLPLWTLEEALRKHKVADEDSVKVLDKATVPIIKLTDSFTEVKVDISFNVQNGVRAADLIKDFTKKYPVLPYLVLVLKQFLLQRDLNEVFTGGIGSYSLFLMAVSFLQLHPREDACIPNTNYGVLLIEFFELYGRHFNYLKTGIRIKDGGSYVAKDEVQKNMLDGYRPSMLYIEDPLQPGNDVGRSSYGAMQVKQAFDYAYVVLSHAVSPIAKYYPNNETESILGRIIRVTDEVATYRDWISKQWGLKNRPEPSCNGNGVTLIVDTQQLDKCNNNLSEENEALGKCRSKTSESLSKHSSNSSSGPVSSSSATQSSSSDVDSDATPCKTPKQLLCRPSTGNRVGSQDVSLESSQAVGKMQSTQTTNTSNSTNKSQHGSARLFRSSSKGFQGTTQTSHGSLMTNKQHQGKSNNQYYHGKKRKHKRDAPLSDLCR

`CCn1cnc2c(=O)oc3ccc(S(=O)(=O)Nc4ccc(OC)cc4)cc3c21` [Entry 119, 1-ethyl-N-(4-methoxyphenyl)-4-oxochromeno[3,4-d]imidazole-8-sulfonamide]: the “Fold-change determined at compound concentration 33 μM” value stood at 1.319 and the “Fold-change determined at compound concentration 100 μM” value is on record as 1.366.
Consider `COc1ccc(OC)c2sc(N(CCCN(C)C)C(=O)c3ccco3)nc12` [Entry 207, N-(4,7-dimethoxy-1,3-benzothiazol-2-yl)-N-[3-(dimethylamino)propyl]furan-2-carboxamide], for which the “Fold-change determined at compound concentration 33 μM” value came out at 1.118 and the “Fold-change determined at compound concentration 100 μM” value is 1.2.
In the same order, the values of `CCOC(=O)c1c[nH]c2nc(NCc3cccc(Br)c3)nn2c1=O` [Entry 156, ethyl 2-[(3-bromophenyl)methylamino]-7-oxo-1H-[1,2,4]triazolo[1,5-a]pyrimidine-6-carboxylate] are 1.212 and 1.516.
In the same order, the values of `O=C(O)c1ccc(Nc2c(-c3cc(Br)ccc3O)nc3cnccn23)cc1` [Entry 192, 4-{[2-(5-bromo-2-hydroxyphenyl)imidazo[1,2-a]pyrazin-3-yl]amino}benzoic acid] are 1.106 and 1.419.
The like results for `CCOc1ccc(-c2noc(Cn3cnc4c(cnn4-c4ccccc4)c3=O)n2)cc1OC` [Entry 217, 5-[[3-(4-ethoxy-3-methoxyphenyl)-1,2,4-oxadiazol-5-yl]methyl]-1-phenylpyrazolo[3,4-d]pyrimidin-4-one] were, in that order, 1.114 and 1.245.
With `Cc1ccc(-c2n[nH]c(=O)c3c2CCCC3)cc1S(=O)(=O)Nc1ccc(S(N)(=O)=O)cc1` [Entry 208, N-[4-(aminosulfonyl)phenyl]-2-methyl-5-(4-oxo-3,4,5,6,7,8-hexahydrophthalazin-1-yl)benzenesulfonamide], the “Fold-change determined at compound concentration 33 μM” value was 1.211 and the “Fold-change determined at compound concentration 100 μM” value is 1.492.
For `CCCCn1c(=O)c2sccc2n2c(=S)[nH]nc12` [Entry 71, 4-butyl-1-thioxo-2,4-dihydrothieno[2,3-e][1,2,4]triazolo[4,3-a]pyrimidin-5(1H)-one], the “Fold-change determined at compound concentration 33 μM” value worked out at 1.173 and the “Fold-change determined at compound concentration 100 μM” value amounted to 1.531.
In the same order, the values of `CC1CCN(C(=O)CSc2nc3c(c(=O)n2Cc2ccccc2)SCC3)CC1` [Entry 232, 3-benzyl-2-((2-(4-methylpiperidin-1-yl)-2-oxoethyl)thio)-6,7-dihydrothieno[3,2-d]pyrimidin-4(3H)-one] are 1.198 and 1.342.
As for `COc1ccc(-c2nc(N3CCOCC3)c3sc(CN(C)c4ncc(C(=O)NO)cn4)cc3n2)cn1` [Entry 42, N-hydroxy-2-[[2-(6-methoxypyridin-3-yl)-4-morpholin-4-ylthieno[3,2-d]pyrimidin-6-yl]methyl-methylamino]pyrimidine-5-carboxamide], the “Fold-change determined at compound concentration 33 μM” value is reported as 1.905 and the “Fold-change determined at compound concentration 100 μM” value worked out at 2.528. The “Fold-change determined at compound concentration 10 μM” value (10 μM compound) turned out to be 1.382.
In the case of `O=C(O)c1cccc(Nc2ncnc3ccc(Br)cc23)c1` [Entry 32, 3-[(6-bromoquinazolin-4-yl)amino]benzoic acid], the “Fold-change determined at compound concentration 33 μM” value stood at 1.114 and the “Fold-change determined at compound concentration 100 μM” value was 1.236.
The like results for `Cc1ccc(-n2nc3c(=O)n(CCCC(=O)NCc4ccccc4C)nc(C)c3c2C)cc1` [Entry 240, 4-[3,4-dimethyl-2-(4-methylphenyl)-7-oxopyrazolo[3,4-d]pyridazin-6-yl]-N-[(2-methylphenyl)methyl]butanamide] were, in that order, 1.091 and 1.206.
In the same order, the values of `CCn1cc(C(=O)O)c(=O)c2cc(F)c(N3CCN(C)CC3)cc21` [Entry 103, 1-ethyl-6-fluoro-7-(4-methylpiperazin-1-yl)-4-oxo-1,4-dihydroquinoline-3-carboxylic acid] are 1.04 and 1.218.
The like results for `O=C(O)c1cc(-c2ccc(C(F)(F)F)cc2)nc2n[nH]c(-c3ccccc3)c12` [Entry 182, 3-phenyl-6-[4-(trifluoromethyl)phenyl]-2H-pyrazolo[3,4-b]pyridine-4-carboxylic acid] were, in that order, 1.1781 and 1.35.
In the case of `O=c1cc(-c2cccc3c2Sc2ccccc2S3)oc(N2CCOCC2)c1` [Entry 243, 2-morpholin-4-yl-6-thianthren-1-ylpyran-4-one], the “Fold-change determined at compound concentration 33 μM” value is 1.324 and the “Fold-change determined at compound concentration 100 μM” value was found to be 1.471.
The like results for `CC(C)Cn1cc(NC(=O)NCc2ccc(Cl)cc2)c2ccccc2c1=O` [Entry 58, 1-[(4-chlorophenyl)methyl]-3-[2-(2-methylpropyl)-1-oxoisoquinolin-4-yl]urea] were, in that order, 1.076 and 1.364.
Turning to `COc1cccc(CNC(=O)Nc2cn(CC(C)C)c(=O)c3ccccc23)c1` [Entry 60, 1-[(3-methoxyphenyl)methyl]-3-[2-(2-methylpropyl)-1-oxoisoquinolin-4-yl]urea], the “Fold-change determined at compound concentration 33 μM” value amounted to 1.088 and the “Fold-change determined at compound concentration 100 μM” value is recorded as 1.621.
In the same order, the values of `COc1ccc(NS(=O)(=O)c2cc3[nH]c(=O)c(=O)[nH]c3cc2C)cc1Cl` [Entry 135, N-(3-chloro-4-methoxyphenyl)-7-methyl-2,3-dioxo-1,4-dihydroquinoxaline-6-sulfonamide] are 1.191 and 1.347.
In the same order, the values of `CC(C)CCn1c(=O)c2ccccc2n2c(=S)[nH]nc12` [Entry 74, 1-mercapto-4-(3-methylbutyl)[1,2,4]triazolo[4,3-a]quinazolin-5(4H)-one] are 1.372 and 1.87.
Consider `Cc1cc(C)c2c(=O)cc(C(=O)Nc3ccc(S(=O)(=O)Nc4onc(C)c4C)cc3)oc2c1` [Entry 115, N-[4-[(3,4-dimethyl-1,2-oxazol-5-yl)sulfamoyl]phenyl]-5,7-dimethyl-4-oxochromene-2-carboxamide], for which the “Fold-change determined at compound concentration 33 μM” value was 1.316 and the “Fold-change determined at compound concentration 100 μM” value is listed as 1.777.
Take `Cn1c(=O)c2nc(SCC(=O)O)n(Cc3ccccc3)c2n(C)c1=O` [Entry 80, 2-(9-benzyl-1,3-dimethyl-2,6-dioxopurin-8-yl)sulfanylacetic acid]: the “Fold-change determined at compound concentration 33 μM” value is listed as 1.164 and the “Fold-change determined at compound concentration 100 μM” value amounted to 1.55.
In the same order, the values of `CCn1c(=S)sc2c(=O)n3[nH]c(=O)c4ccccc4c3nc21` [Entry 231, 11-ethyl-10-thioxo-10,11-dihydro-6H-[1,3]thiazolo[4′,5′:4,5]pyrimido[2,1-a]phthalazine-5,8-dione] are 1.068 and 1.36.
The like results for `Cc1nnc2ccc(-n3ncc4c3NC(=O)CC4c3ccc(O)cc3)nn12` (centres unmarked) [Entry 148, 4-(4-hydroxyphenyl)-1-(3-methyl[1,2,4]triazolo[4,3-b]pyridazin-6-yl)-1,4,5,7-tetrahydro-6H-pyrazolo[3,4-b]pyridin-6-one] were, in that order, 1.05 and 1.215.
Regarding `O=c1nc(SCc2ccc(F)cc2)[nH]c2nc[nH]c12` [Entry 162, 2-[(4-fluorophenyl)methylsulfanyl]-3,7-dihydropurin-6-one], the “Fold-change determined at compound concentration 33 μM” value was 1.153 and the “Fold-change determined at compound concentration 100 μM” value was 1.431.
The like results for `CCOC(=O)Cn1cnc2sc3c(c2c1=O)CCCC3` [Entry 211, Ethyl (4-oxo-5,6,7,8-tetrahydro[1]benzothieno[2,3-d]pyrimidin-3(4H)-yl)acetate] were, in that order, 1.065 and 1.217.
In the same order, the values of `Nc1c2ccccc2nc2ccccc12` [Entry 30, acridin-9-amine] are 1.313 and 1.944.
Consider `Cn1nc(-c2ccc(Cl)cc2)c2cc(C(=O)O)sc21` [Entry 205, 3-(4-chlorophenyl)-1-methylthieno[2,3-c]pyrazole-5-carboxylic acid], for which the “Fold-change determined at compound concentration 33 μM” value turned out to be 1.232 and the “Fold-change determined at compound concentration 100 μM” value amounted to 2.055.
In the same order, the values of `O=c1c(S(=O)(=O)c2cccc(F)c2)c[nH]c2c(F)ccc(Cl)c12` [Entry 105, 5-chloro-8-fluoro-3-(3-fluorophenyl)sulfonyl-1H-quinolin-4-one] are 1.16 and 1.333.
In the same order, the values of `COc1ccc(C2CC(=O)N3CN(C4CCCCC4)CSC3=C2C#N)cc1` (centres unmarked) [Entry 194, 3-cyclohexyl-8-(4-methoxyphenyl)-6-oxo-3,4,7,8-tetrahydro-2H,6H-pyrido[2,1-b][1,3,5]thiadiazine-9-carbonitrile] are 1.323 and 1.613.
In the same order, the values of `Cc1c(C(=O)N2CCCC2)oc2c1-c1nn(CC(=O)NCCCOC(C)C)cc1CC2` [Entry 168, 2-[8-methyl-7-(pyrrolidine-1-carbonyl)-4,5-dihydrofuro[2,3-g]indazol-2-yl]-N-(3-propan-2-yloxypropyl)acetamide] are 1.452 and 1.678.

Values taken from patent publication US12171755B2, “PAPD5 inhibitors and methods of use thereof” (Children's Medical Center Corporation, priority 2017, dated 2024).
